Assay results as given in US5629347A, “Aromatic compounds, pharmaceutical compositions containing them and their use in therapy” (Merck Sharp & Dohme Ltd., priority 1991, dated 1997).
Where a name gives a salt, the structure may show the parent alone.

Molecular target: human NK1R (Homo sapiens, UniProt P25103)
Assay: biochemical
Type: binding
Settings: for IC50: displacement of 125I-substance P, human NK1R in COS or CHO cells
Method: To express the cloned human neurokinin-1-receotor (NK1R) transiently in COS, the cDNA for the human NK1R was cloned into the expression vector pCDM9 which was derived from pCDM8 (INVITROGEN) by inserting the ampicillin resistance gene (nucleotide 1973 to 2964 from BLUESCRIPT SK+ (trademark, […], La Jolla, Calif., U.S.A.)) into the Sac II site. Transfection of 20 ug of the plasmid DNA into 10 million COS cells was achieved by electroporation in 800 μl of transfection buffer (135 mM NaCl, 1.2 mM CaCl2, 1.2 mM MgCl2, 2.4 mM K2 HPO4, 0.6 mM KH2 PO4, 10 mM glucose, 10 mM N-2-hydroxyethyl-piperazine-N'-2-ethane sulphonic acid (HEPES) pH 7.4) at 260 V and 950 μF using the IBI GENEZAPPER (trademark IBI, New Haven, Conn., U.S.A.). The cells were incubated in 10% fetal calf serum, 2 mM glutamine, 100 U/ml penicillin-streptomycin, and 90% DMEM media (GIBCO, Grand Island, N.Y., U.S.A.) in 5% CO2 at 37° C. for three days before the binding assay.
To establish a stable cell line expressing cloned human NK1R, the cDNA was subcloned into the vector pRcCMV (INVITROGEN). Transfection of 20 ug of the plasmid DNA into CHO cells was achieved by electroporation in 800 μl of transfection buffer supplemented with 0.625 mg/ml Herring sperm DNA at 300 V and 950 μF using the IBI GENEZAPPER (IBI). The transfected cells were incubated. in CHO media [10% fetal calf serum, 100 U/ml penicillin-streptomycin, 2 mM glutamine, 1/500 hypoxanthinethymidine (ATCC), 90% IMDM media (JRH BIOSCIENCES, Lenexa, Kans., U.S.A.), 0.7 mg/ml G418 (GIBCO)] in 5% CO2 at 37° C. until colonies were visible. Each colony was separated and propagated. The cell clone with the highest number of human NK1R was selected for subsequent applications such as drug screening.
The binding assay of human NK1R expressed in either COS or CHO cells is based on the use of ^125 I-substance P (^125 I-SP, from DU PONT, Boston, Mass.) as a radioactively labeled ligand which competes with unlabeled substance P or any other ligand for binding to the human NK1R. […] The tubes were incubated at 4° C. or at room temperature for 1 hour with gentle shaking. The bound radioactivity was separated from unbound radioactivity by GF/C filter (BRANDEL, Gaithersburg, Md.) which was prewetted with 0.1% polyethylenimine. The filter was washed with 3 ml of wash buffer (50 mM Tris pH 7.5, 5 mM MnCl2, 150 mM NaCl) three times and its radioactivity was determined by gamma counter.

Sequence of human NK1R (P25103 whole entry): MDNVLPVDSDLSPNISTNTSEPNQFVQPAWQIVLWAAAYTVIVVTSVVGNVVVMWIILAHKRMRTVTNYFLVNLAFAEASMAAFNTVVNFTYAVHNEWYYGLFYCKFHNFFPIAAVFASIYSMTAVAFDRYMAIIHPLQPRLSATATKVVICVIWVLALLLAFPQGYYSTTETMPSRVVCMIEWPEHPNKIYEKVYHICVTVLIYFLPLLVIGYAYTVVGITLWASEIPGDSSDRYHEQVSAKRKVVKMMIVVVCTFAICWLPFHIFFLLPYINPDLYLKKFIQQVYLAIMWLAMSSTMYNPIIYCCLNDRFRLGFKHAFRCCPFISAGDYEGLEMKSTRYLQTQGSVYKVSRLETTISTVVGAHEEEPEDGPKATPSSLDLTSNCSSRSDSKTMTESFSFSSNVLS

| Compound | IC50 | also measured |
| --- | --- | --- |
| COc1cccc(C(Cc2ccccc2)C(N)COCc2cc(C(F)(F)F)cc(C(F)(F)F)c2)c1 (mixture of isomers) [70 (mixture of diastereomers), 2-Amino-1-((3,5-bis(trifluoromethyl)phenyl)methyloxy)-3-(3-methoxyphenyl)-4-phenylbutane] | 160 nM | – |
| CC(NC(COCc1cc(C(F)(F)F)cc(C(F)(F)F)c1)C(c1ccccc1)c1ccccc1)C(N)=O (single isomer, unassigned) [41 (diastereomer A), 1-((3',5'-Bis(trifluoromethyl)phenyl)methyloxy)-2-((1-(carboxamido)ethyl)ammonium)-3,3-diphenylpropane oxalate salt] | 0.4 nM | – |
| CC(NC(COCc1cc(C(F)(F)F)cc(C(F)(F)F)c1)C(c1ccccc1)c1ccccc1)C(N)=O (single isomer, unassigned) [41 (diastereomer B), 1-((3',5'-Bis(trifluoromethyl)phenyl)methyloxy)-2-((1-(carboxamido)ethyl)ammonium)-3,3-diphenylpropane oxalate salt] | 0.5 nM | – |
| CC(N[C@H](COCc1cc(C(F)(F)F)cc(C(F)(F)F)c1)C(c1ccccc1)c1ccccc1)C(N)=O (single isomer, unassigned) [58 (diastereomer A)] | 0.4 nM | – |
| CC(N[C@H](COCc1cc(C(F)(F)F)cc(C(F)(F)F)c1)C(c1ccccc1)c1ccccc1)C(N)=O (single isomer, unassigned) [58 (diastereomer B)] | 0.5 nM | – |
| CC(c1cccc(Cl)c1)C(N)COCc1cc(C(F)(F)F)cc(C(F)(F)F)c1 (single isomer, unassigned) [71 (diastereomer B), 2-Amino-1-((3,5-bis(trifluoromethyl)phenyl)methyloxy)-3-(3-chlorophenyl)-butane] | – | inhibition at 0.3 µM (1 h, @ 0.3 μM, read-out: Substance P antagonism (%)): 42% |
| Cc1cc(C)cc(COCC(N)C(c2ccccc2)c2ccccc2)c1 (stereo not drawn) [Example 1, 2-Ammoninm-1-((3,5-dimethylphenyl)methyloxy)-3,3-diphenylpronane tosylate salt] | 5.5 nM | – |
| Cc1cc(C)cc(COCC(C(c2ccccc2)c2ccccc2)N(C)C)c1 (stereo not drawn) [Example 2, 2-Dimethylammonium-1-((3,5-dimethylphenyl)methyloxy)-3,3-diphenylpropane tosylate salt] | 2.4 nM | – |
| COc1ccccc1CNC(=O)C(NC(=O)OC(C)(C)C)C(c1ccccc1)c1ccccc1 (stereo not drawn) [Example 3, 2-t-Butoxycarbonylamino-3,3-diphenylpropanoyl-(2-methoxyphenyl)methylamide] | – | inhibition at 10 µM (1 h, @ 10 μM, read-out: Substance P antagonism (%)): 77% |
| COc1ccccc1CNC(=O)C(N)C(c1ccccc1)c1ccccc1 (stereo not drawn) [Example 4, 2-Ammonium-3,3-diphenylpropanoyl-(2-methoxyphenyl)methylamide tosylate salt] | 700 nM | – |
| Cc1cc(C)cc(COC(=O)C(N)C(c2ccccc2)c2ccccc2)c1 (stereo not drawn) [Example 5, (3,5-Dimethylphenyl)methyl 2-ammonium-3,3-diphenylpropanoate tosylate salt] | 160 nM | – |
| CNC(COCc1cc(C)cc(C)c1)C(c1ccccc1)c1ccccc1 (stereo not drawn) [Example 6, 2-Methylammonium-1-((3,5-dimethylphenyl)methyloxy)-3,3-diphenylpropane oxalate salt] | 10 nM | – |
| CCNC(COCc1cc(C)cc(C)c1)C(c1ccccc1)c1ccccc1 (stereo not drawn) [Example 7, 2-Ethylammonium-1-((3,5-dimethylphenyl)methyloxy)-3,3-diphenylpropane oxalate salt] | 20 nM | – |
| CCCNC(COCc1cc(C)cc(C)c1)C(c1ccccc1)c1ccccc1 (stereo not drawn) [Example 8, 2-Propylammonium-1-((3,5-dimethylphenyl)methyloxy)-3,3-diphenylpropane oxalate salt] | 90 nM | – |
| Cc1cc(C)cc(COCC(NCC2CC2)C(c2ccccc2)c2ccccc2)c1 (stereo not drawn) [Example 9, 2-Cyclopropylmethylammonium-1-((3,5-dimethylphenyl)methyloxy)-3,3-diphenylpropane tosylate salt] | 100 nM | – |
| C=CCNC(COCc1cc(C)cc(C)c1)C(c1ccccc1)c1ccccc1 (stereo not drawn) [Example 10, 2-Allylammonium-1-((3,5-dimethylphenyl)methyloxy)-3,3-diphenylpropane oxalate salt] | 70 nM | – |
| Cc1cc(C)cc(COCC(NCc2ccccc2)C(c2ccccc2)c2ccccc2)c1 (stereo not drawn) [Example 11, 2-Benzylammonium-1-((3,5-dimethylphenyl)methyloxy)-3,3-diphenyl propane] | 320 nM | – |

| Compound | IC50 | also measured |
| --- | --- | --- |
| Cc1cc(C)cc(COCC(C(c2ccccc2)c2ccccc2)[N+](C)(C)C)c1 (stereo not drawn) [Example 12, 1-((3,5-Dimethylphenyl)methyloxy)-3,3-diphenyl-2-(N,N,N-trimethylammonium)propane iodide salt] | 19 nM | – |
| Cc1cc(C)cc(COCC(C(c2ccccc2)c2ccccc2)N2CCCC2)c1 (stereo not drawn) [Example 13, 3,3-Diphenyl-1-((3,5-dimethylphenyl)methyloxy)-2-(1-pyrrolidinium)propane tosylate salt] | 20 nM | – |
| Cc1cc(C)cc(COCC(C(c2ccccc2)c2ccccc2)N2CCCCC2)c1 (stereo not drawn) [Example 14, 3,3-Diphenyl-1-((3,5-dimethylphenyl)methyloxy)-2-(piperidin-1-yl)propane hydrochloride salt] | 70 nM | – |
| Cc1cc(C)cc(COCC(C(c2ccccc2)c2ccccc2)N2CCOCC2)c1 (stereo not drawn) [Example 15, 3,3-Diphenyl-1-((3,5-dimethylphenyl)methyloxy)-2-(4-morpholino)propane] | 100 nM | – |
| NC(COCc1cc(Cl)cc(Cl)c1)C(c1ccccc1)c1ccccc1 (stereo not drawn) [Example 18, 2-Ammouinm-1-((3,5-dichlorophenyl)methyloxy)-3,3-diphenylpropane tosylate salt] | 22 nM | – |
| NC(COCc1cccc(Cl)c1)C(c1ccccc1)c1ccccc1 (stereo not drawn) [Example 19, 2-Ammonium-1-((3-chlorophenyl)methyloxy)-3,3-diphenylpropane tosylate salt] | 120 nM | – |
| COC(=O)CNC(COCc1cc(C)cc(C)c1)C(c1ccccc1)c1ccccc1 (stereo not drawn) [Example 20, 2-(N-(Carbomethoxymethyl)ammonium)-1-((3,5-dimethylphenyl)methyloxy)-3,3-diphenylpropane tosylate salt] | 40 nM | – |
| Cc1cc(C)cc(COCC(NCC(N)=O)C(c2ccccc2)c2ccccc2)c1 (stereo not drawn) [Example 21, 2-(((Carboxamido)methyl)amino)-1-((3,5-dimethylphenyl)methyloxy)-3,3-diphenylpropane] | 3 nM | – |
| Cc1cc(C)cc(COCC(NCCO)C(c2ccccc2)c2ccccc2)c1 (stereo not drawn) [Example 22, 2-(N-(2-Hydroxyethyl)ammonium)-1-((3,5-dimethylphenyl)methyloxy)-3,3-diphenylpropane oxalate salt] | 45 nM | – |
| Cc1cc(C)cc(COCC(NC=O)C(c2ccccc2)c2ccccc2)c1 (stereo not drawn) [Example 23, 2-Formamido-1-((3,5-dimethylphenyl)methyloxy)-3,3-diphenylpronane] | 35 nM | – |
| NC(COCc1cccc([N+](=O)[O-])c1)C(c1ccccc1)c1ccccc1 (stereo not drawn) [Example 24, 2-Ammonium-1-((3-nitrophenyl)methyloxy)-3,3-diphenylpropane oxalate salt] | 400 nM | – |
| NC(COCc1ccccc1)C(c1ccccc1)c1ccccc1 (stereo not drawn) [Example 25, 2-Ammonium-1-benzyloxy-3,3-diphenylpropane oxalate salt] | 600 nM | – |
| NC(COCc1cccc(I)c1)C(c1ccccc1)c1ccccc1 (stereo not drawn) [Example 26, oxalate salt] | 140 nM | – |
| COc1cc(COCC(N)C(c2ccccc2)c2ccccc2)cc(OC)c1 (stereo not drawn) [Example 27, 2-Ammonium-1-((3,5-dimethoxyphenyl)methyloxy-3,3-diphenylpropane oxalate salt] | 70 nM | – |
| Cc1ccc(C)c(COCC(N)C(c2ccccc2)c2ccccc2)c1 (stereo not drawn) [Example 28, 2-Ammonium-1-((2,5-dimethylphenyl)methyloxy)-3,3-diphenylpropane oxalate salt] | 300 nM | – |
| N#Cc1cccc(COCC(N)C(c2ccccc2)c2ccccc2)c1 (stereo not drawn) [Example 29, 2-Ammoninm-1-((3-cyanophenyl)methyloxy)-3,3-diphenylpropane oxalate salt] | – | inhibition at 1 µM (1 h, @ 1 μM, read-out: Substance P antagonism (%)): 48% |
